Measured values taken from US7049305B2, “Bile-acid conjugates providing for sustained systemic concentration of drugs” (XenoPort, Inc., priority 2000, dated 2006).

Biological target: T1, rPEPT1 (Rattus norvegicus, UniProt P51574)
T1 construct: expressed in transfected cells; host or cells: CHO cells
T1 sequence (P51574 1-710): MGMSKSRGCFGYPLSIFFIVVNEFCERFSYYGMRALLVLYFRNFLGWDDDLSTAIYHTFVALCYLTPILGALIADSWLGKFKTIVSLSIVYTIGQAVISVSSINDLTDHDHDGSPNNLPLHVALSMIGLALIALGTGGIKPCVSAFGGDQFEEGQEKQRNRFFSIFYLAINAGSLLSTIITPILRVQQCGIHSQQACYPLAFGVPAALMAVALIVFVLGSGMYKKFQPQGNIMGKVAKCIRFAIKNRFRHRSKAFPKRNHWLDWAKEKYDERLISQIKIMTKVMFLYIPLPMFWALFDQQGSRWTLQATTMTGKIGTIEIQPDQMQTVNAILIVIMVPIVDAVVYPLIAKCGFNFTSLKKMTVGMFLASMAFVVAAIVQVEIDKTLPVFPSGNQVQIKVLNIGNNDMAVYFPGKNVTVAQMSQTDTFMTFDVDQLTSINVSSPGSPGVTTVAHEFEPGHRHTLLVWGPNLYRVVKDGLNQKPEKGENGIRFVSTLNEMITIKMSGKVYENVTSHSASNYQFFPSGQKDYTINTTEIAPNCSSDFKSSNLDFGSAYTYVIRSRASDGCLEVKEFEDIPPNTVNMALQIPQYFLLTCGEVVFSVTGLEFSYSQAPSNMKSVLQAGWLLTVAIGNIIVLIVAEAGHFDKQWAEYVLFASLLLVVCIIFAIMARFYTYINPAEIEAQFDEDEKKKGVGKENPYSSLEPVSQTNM
Experiment: Transport-induced currents in Xenopus oocytes expressing rPEPT1
Assay type: cell-based
Details: response relative to Gly-Sar, test compound 1 mM
Protocol: Rat and human PEPT1 and PEPT2 expressing CHO cell lines were prepared as described in PCT Application WO01/20331. Gabapentin-containing dipeptides were evaluated for interaction with the peptide transporters using a radiolabeled substrate uptake assay in a competitive inhibition format, as described in PCT Application WO01/20331. Transport-induced currents were also measured in Xenopus oocytes transfected with rat and human PEPT1 and PEPT2.

For `NCC(=O)NCC1(CC(=O)O)CCCCC1` [Gly-Gabapentin], the “% Max. (Gly-Sar)” value was 76%.
